Molecular target: T1, Ag85CMabs (Ag85C, MAB_0175) (Mycobacteroides abscessus, UniProt B1MEL1)
T1 construct: C-terminal 6His-tag; pMyC vector, expressed in M. smegmatis delta-groEL1
Test: competitive TAMRA-FP activity-based probe labelling, in-gel fluorescence
Assay type: binding
Details: covalent; 14 uM enzyme, 1 h preincubation, 10 mM Tris pH 8, 150 mM NaCl, 0.1% Triton X-100; catalytic Ser124

T1 sequence (B1MEL1 entry or part of it): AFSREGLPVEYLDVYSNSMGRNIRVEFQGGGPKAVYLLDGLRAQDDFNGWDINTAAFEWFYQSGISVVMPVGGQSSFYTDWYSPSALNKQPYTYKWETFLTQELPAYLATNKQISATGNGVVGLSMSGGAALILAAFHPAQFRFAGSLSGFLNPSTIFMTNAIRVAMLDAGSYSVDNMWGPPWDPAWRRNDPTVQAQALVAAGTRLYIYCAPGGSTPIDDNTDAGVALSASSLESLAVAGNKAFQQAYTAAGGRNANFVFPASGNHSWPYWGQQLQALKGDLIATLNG

Question: `CC(C)COc1nn(-c2ccc(Oc3ccccc3)cc2)c(=O)o1` [iBpPPOX] was tested. Which “% loss of TAMRA-FP labelling at E/I 1:75” value did it give?
Answer: > 90%
